Experimental data: the NIST ThermoML archive (doi:10.1016/j.jct.2015.07.044)
± gives the expanded uncertainty stated by the source.

Assay: excess molar enthalpy (molar enthalpy of mixing); xn = mol fraction of the nth substance listed
Conditions: 298.15 K, 100 kPa, Liquid, Isoperibol calorimetry

CCCOCC(C)O (stereo not given) [1-propoxy-2-propanol] + O
Conditions | excess molar enthalpy [kcal/mol]
x1 = 0.00199 | -0.012 ± 0.00239
x1 = 0.00509 | -0.0263 ± 0.00239
x1 = 0.00988 | -0.0454 ± 0.00239
x1 = 0.01524 | -0.0693 ± 0.00239
x1 = 0.02082 | -0.0765 ± 0.00239
x1 = 0.02573 | -0.0884 ± 0.00478
x1 = 0.0299 | -0.11 ± 0.00478
x1 = 0.03983 | -0.12 ± 0.00478
x1 = 0.05248 | -0.124 ± 0.00478
x1 = 0.09463 | -0.141 ± 0.00478
x1 = 0.09856 | -0.141 ± 0.00478
x1 = 0.1198 | -0.146 ± 0.00717
x1 = 0.1284 | -0.146 ± 0.00717
x1 = 0.1504 | -0.148 ± 0.00717
x1 = 0.1711 | -0.148 ± 0.00717
x1 = 0.2286 | -0.148 ± 0.00717
x1 = 0.297 | -0.141 ± 0.00478
x1 = 0.3791 | -0.131 ± 0.00478
x1 = 0.4088 | -0.129 ± 0.00478
x1 = 0.4372 | -0.124 ± 0.00478
x1 = 0.494 | -0.105 ± 0.00478
x1 = 0.5971 | -0.0837 ± 0.00478
x1 = 0.6988 | -0.0669 ± 0.00239
x1 = 0.7467 | -0.0598 ± 0.00239
x1 = 0.8056 | -0.0478 ± 0.00239
x1 = 0.8534 | -0.0382 ± 0.00239
x1 = 0.8713 | -0.0335 ± 0.00239
x1 = 0.9051 | -0.0263 ± 0.00239
x1 = 0.9205 | -0.0215 ± 0.00239
x1 = 0.9499 | -0.0143 ± 0.00239
